In US5753635A, “Purine derivatives and their use as anti-coagulants” (Berlex Laboratories, Inc., priority 1996, dated 1998):
Non-standard residues stand in square brackets, D forms with d. Residues, ends and D or L forms follow the SMILES beside them. *: point of attachment. pNA = O=[N+]([O-])c1ccc(N*)cc1

Columns and labels:
[1] = molecular target: T1, Human tissue plasminogen activator (tPA) (Two chains, Sigma) (Homo sapiens, UniProt P00750); test: In vitro chromogenic assay for tissue plasminogen activator; type: biochemical; details: substrate concentration stated equal to Km; 10 nM tPA, pH 7.5, ambient temperature; read-out: Km (S2288)
T1 construct: purchased Sigma
Experimental: (§1) The activities were determined as an initial rate of cleavage of the peptide p-nitroanilide by the enzyme. The cleavage product, p-nitroaniline, absorbs at 405 nm with a molar extinction coefficient of 9920 M^-1 cm^-1.
(§2) 50 mM TrisHCl, 150 mM NaCl, 2.5 mM CaCl2, and 0.1% polyethylene glycol 6000, pH 7.5.
3. Human tissue plasminogen activator (tPA) (Two chains, Sigma) stock solution: 1 mg/mL, stored at -80° C. (working solution (2×): 1361 ng/mL in assay buffer, prepare prior to use).
3. S2288 (tPA assay) stock solution: 10 mM in dH2 O, stored at 4° C. (working solution (4×):
1484 μM in assay buffer).
Assays were performed in 96-well microtiter plates in a total volume of 200 μl. […] Concentrations of the standard inhibitor compound in the assay were from 5 μM to 0.021 μM in 1 to 3 dilution. Concentration of the test compounds in the assay typically were from 10 μM to 0.041 μM in 1 to 3 dilution. […]
(§3) The enzyme kinetics were measured at 405 nm at 10 seconds intervals for five minutes in a THERMOmax plate reader at ambient temperature.
(§4) Enzyme rates were calculated as mOD/min based on the first two minutes readings. The IC50 values were determined by fitting the data to the log-logit equation (linear) or the Morrison equation (non-linear) with an EXCEL spread-sheet. […]

Human thrombin = molecular target: T2, Human thrombin (Homo sapiens, UniProt P00734); test: In vitro chromogenic assay for thrombin; type: biochemical; details: substrate concentration stated equal to Km; 20 nM thrombin, pH 7.5, ambient temperature; read-out: Km (S2302)
T2 construct: Human thrombin stock solution; purchased Enzyme Research Lab
Experimental: as §1, §2
2. Human thrombin stock solution: Stored at -80° C. (working solution (2×): 1200 ng/mL or 40 nM in assay buffer, prepare prior to use).
2. S2302 (Thrombin assay) stock solution: 10 mM in dH2 O, stored at 4° C. (working solution (4×): 1200 μM in assay buffer).
Assays were performed in 96-well microtiter plates in a total volume of 200 μl. […] Concentrations of the standard inhibitor compound in the assay were from 5 μM to 0.021 μM in 1 to 3 dilution. Concentration of the test compounds in the assay typically were from 10 μM to 0.041 μM in 1 to 3 dilution. For potent test compounds, the concentrations used in the factor Xa assays were further diluted 100 fold (100 nM to 0.41 nM) or 1000 fold (10 nM to 0.041 nM). […]
as §3, §4

T1 sequence (P00750 311-562 limits assumed): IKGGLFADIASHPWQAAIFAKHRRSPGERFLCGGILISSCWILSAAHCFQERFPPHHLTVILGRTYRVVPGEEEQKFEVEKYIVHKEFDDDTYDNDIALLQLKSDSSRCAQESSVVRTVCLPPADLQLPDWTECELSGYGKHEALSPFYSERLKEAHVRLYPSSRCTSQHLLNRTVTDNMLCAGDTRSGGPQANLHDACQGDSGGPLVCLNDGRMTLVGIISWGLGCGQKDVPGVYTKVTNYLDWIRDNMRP
T1 sequence (P00750 36-310 partner limits assumed): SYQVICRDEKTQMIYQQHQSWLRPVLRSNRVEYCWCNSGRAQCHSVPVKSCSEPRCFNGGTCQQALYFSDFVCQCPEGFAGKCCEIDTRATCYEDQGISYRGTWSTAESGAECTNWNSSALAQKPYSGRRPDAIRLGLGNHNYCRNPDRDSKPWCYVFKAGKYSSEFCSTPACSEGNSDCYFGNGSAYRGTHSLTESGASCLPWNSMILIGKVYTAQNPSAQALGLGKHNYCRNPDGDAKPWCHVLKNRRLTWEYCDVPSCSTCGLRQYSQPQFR

Compound | Km [1] | Km (Human thrombin)
CC[C@@H](C)[C@@H](N)C(=O)N1CCC[C@H]1C(=O)N[C@@H](CCCN=C(N)N)C(=O)Nc1ccc([N+](=O)[O-])cc1 [Example S2288] (H-[dI]-Pro-Arg-pNA) | 371 µM | 
N=C(N)NCCC[C@H](NC(=O)[C@H](Cc1ccccc1)NC(=O)[C@H]1CCCN1)C(=O)Nc1ccc([N+](=O)[O-])cc1 [Example S2302] (H-[dP]-Phe-Arg-pNA) |  | 300 µM
